Measurements as given in patent USH1168H, “Inhibitors of protein kinase C activity as protectors against septic shock and reducers of ARDS” (priority 1991, dated 1993).
“Also recorded” adds a separate entry of the source.

What was measured:
rat aortic rings [1] = assay: Direct contraction of rat aortic rings by phorbol dibutyrate; type: cell-based; set-up: Emax: dose or concentration left out as unconfirmed; details: for EC50: read-out: EC50 for contraction by PDB
Experimental: Four rings were prepared from each rat and one ring allocated into each medium formulation. Data is presented as in FIG. 1.
(§1) Tissue preparation and incubation. Male Sprague-Dawley rats (250-350 g, Taconic Farms, Germantown, N.Y.) were used. Rat thoracic aortic rings were prepared and incubated as detailed by McKenna (14). In brief, 4 or 6 rings were prepared from each rat. Care was taken during dissection to maintain the patency of the endothelium. Some aortas were de-endothelialized before sectioning into rings by perfusion with phosphate buffered saline (PBS) containing 1% deoxycholate for 30 sec followed by a PBS and bubble rinse for 5 min. Rings were incubated in DME (Dulbecco's Modified Eagle's medium) supplemented with 1% fetal calf serum, 100 μg/ml streptomycin, and 100 U/ml penicillin. During incubation, the rings were exposed to combinations of LPS (10 or 35 ng/ml), H7 (25 μM), HA1004 (N-(2-guanidinoethyl)-5-isoquinolinesulfonamide) (25 μM), sphingosine (20 μM), or their vehicles. […] Rings used in measures of contractile performance were placed individually in Petri dishes containing 1.2 ml DME and were distributed so that tissue isolated from each aorta was allocated to every combination of treatments within an experiment. […] All tissue isolated from an aorta (six rings) was allocated to a single treatment. The media and rings were rotated gently for 16-18 hr in an incubator at 37° C. under a 95% O2 -5% CO2 atmosphere.
(§2) Measurement of aortic ring contraction. After incubation, rings were mounted in tissue baths, equilibrated, and pre-contracted as previously detailed (14). These procedures required approximately 90 min. Rings were maintained in Krebs Ringer Bicarbonate buffer (KRB, 14). Contractions by six or eight rings were measured simultaneously and recorded on multichannel strip chart recorders. […] Other rings were contracted by withdrawing KRB from the tissue baths and adding increasing volumes of a high KCl KRB (120 mM, made by equimolar substitution of KCl for NaCl) to the baths to yield final KCl concentrations of 10 to 80 mM. All rings were blotted and weighed after experiments were completed.
(§3) Statistics. […] Tests for differences between EC50 values were based on log EC50 values (17). EC50 values were then converted to […] means to allow expression as nanomolar concentrations. Examination of differences among four or six treatment means was by randomized blocks analysis of variance; if significant differences were present, then pairs of means were tested by Student-Newman-Keuls a posteriori tests (18). Paired t-tests were used to assess differences between two treatment means. […] Differences with probabilities of 0.05 or less were accepted as significant. All data are expressed as means±SEM.

rat aortic rings [2] = assay: NE-induced contraction of rat aortic rings after 16 h incubation with phorbol dibutyrate; type: cell-based; set-up: contractions to NE; vascular suppression: dose or concentration left out as unconfirmed; details: for EC50: Rattus norvegicus, 16 h
Experimental: (§4) (Panel B) Contraction to KCl by rings incubated and denoted with the same symbols as detailed above. Four rings were prepared from each rat and one ring allocated into each medium formulation to evaluate responses to NE. Rings were similarly prepared to determine responses to KCl. Data presented as in FIG. 1. N=6 rats apiece for assessment of responses to NE and KCl.
(§5) (Panel B) Contraction to KCl by rings incubated and denoted with the same symbols as detailed above. Four rings were prepared from each rat and one ring allocated into each medium formulation. Data is presented as in FIG. 1. N=8 rats for assessment of responses to both NE and KCl.
as §1, §2, §3

rat aortic rings [3] = assay: KCl-induced contraction of rat aortic rings after 16 h incubation with phorbol dibutyrate; type: cell-based; details: for EC50: Rattus norvegicus, 16 h
Experimental: as §4, §5, §1, §2, §3

PKC = details: literature (33,34); cited from earlier work
endothelial cells = details: literature (1, 2); cited from earlier work
platelets = details: pretreatment; stimulation with thrombin, OAG, linoleic or linolelaidic acid (25); cited from earlier work

For `CCCC(=O)O[C@@H]1[C@@H](C)[C@@]2(O)[C@@H](C=C(CO)C[C@]3(O)C(=O)C(C)=C[C@@H]23)[C@@H]2C(C)(C)[C@]12OC(=O)CCC` [PDB, 4β-phorbol-12,13-dibutyrate], the EC50 (rat aortic rings [1]; Rattus norvegicus, 16 h) was 0.041 ± 0.003 µM, the EC50 (rat aortic rings [1]; Rattus norvegicus) was 0.032 ± 0.004 µM and the Emax (rat aortic rings [1]; Rattus norvegicus, read-out: maximum contraction caused by PDB) was greater than 90%. For the same compound, the EC50 (rat aortic rings [2]; read-out: EC50 value for NE contraction (EC50 of the agonist NE), rings incubated with 4β-PDB 0.1 μM, 16 h) was 0.056 µM, the EC50 (rat aortic rings [2]; read-out: EC50 value for NE contraction (EC50 of the agonist NE), rings incubated with 4β-PDB 1.0 μM, 16 h) was 0.184 µM and the EC50 (rat aortic rings [2]; read-out: EC50 value for NE contraction (EC50 of the agonist NE), rings incubated with 4β-PDB 10.0 μM, 16 h) was 0.283 µM. The EC50 (rat aortic rings [3]; read-out: EC50 value for KCl contraction (EC50 of the agonist KCl), rings incubated with 4β-PDB 0.1 μM, 16 h) was 22000 µM, the EC50 (rat aortic rings [3]; read-out: EC50 value for KCl contraction (EC50 of the agonist KCl), rings incubated with 4β-PDB 1.0 μM, 16 h) was 27000 µM and the EC50 (rat aortic rings [3]; read-out: EC50 value for KCl contraction (EC50 of the agonist KCl), rings incubated with 4β-PDB 10.0 μM, 16 h) was 36000 µM.

In the case of lipid A, the “activation of PKC in vitro” value (PKC) is listed as “can directly activate PKC in vitro”.

For `CN[C@@H]1C[C@H]2O[C@@](C)([C@@H]1OC)n1c3ccccc3c3c4c(c5c6ccccc6n2c5c31)C(=O)NC4` [staurosporine], the “adhesive proteins on endothelial cell surfaces” value (endothelial cells) is listed as “reduced” and the “platelet aggregation after stimulation” value (platelets) is listed as “blocked”.

In the case of `CCCC(=O)O[C@@H]1[C@@H](C)[C@@]2(O)[C@@H](C=C(CO)C[C@@]3(O)C(=O)C(C)=C[C@@H]23)[C@@H]2C(C)(C)[C@]12OC(=O)CCC` [4α-PDB, 4-α-phorbol-12,13-dibutyrate], the “contraction of aortic rings by 4α-PDB itself” value (rat aortic rings [1]; concentrations up to 10 μM (data not shown)) is reported as “could not contract aortic rings at concentrations up to 10 μM”, the “contractions to NE; vascular suppression” value (rat aortic rings [2]) is reported as “significantly impaired contractions to NE and KCl; also recorded: equally effective at causing vascular suppression” and the “alterations in EC50 values for NE” value (rat aortic rings [2]; 10 μM 4α-PDB) is reported as “no significant alterations in EC50 values for the agonists”. The EC50 (rat aortic rings [2]; read-out: EC50 value for NE contraction (EC50 of the agonist NE), rings incubated with 4α-PDB 10.0 μM, 16 h) was 0.286 µM, the “alterations in EC50 values for KCl” value (rat aortic rings [3]; 10 μM 4α-PDB) was “no significant alterations in EC50 values for the agonists” and the “contractions to KCl” value (rat aortic rings [3]; 10 μM 4α-PDB) was “significantly impaired contractions to NE and KCl”. For the same compound, the EC50 (rat aortic rings [3]; read-out: EC50 value for KCl contraction (EC50 of the agonist KCl), rings incubated with 4α-PDB 10.0 μM, 16 h) was 28000 µM.

For polymyxin B, the “platelet aggregation after stimulation” value (platelets) is listed as “blocked”.
